Measured values as given in patent publication US7927820B2 (priority 2004, dated 2011).
Read-outs that look alike come from different tables or passages of the source. Bridges are numbered along the chain shown (N, C = ends). Where no end group is shown, it is not given here.

Columns and labels:
[1] = target: N-type calcium channels in cell membranes isolated from rat brain (Rattus norvegicus, UniProt Q02294); type: binding
[2] = target: P/Q-type calcium channels (Homo sapiens, UniProt O00555); details: cited from earlier work
Sequence of P/Q-type calcium channels (O00555 whole entry, looked up): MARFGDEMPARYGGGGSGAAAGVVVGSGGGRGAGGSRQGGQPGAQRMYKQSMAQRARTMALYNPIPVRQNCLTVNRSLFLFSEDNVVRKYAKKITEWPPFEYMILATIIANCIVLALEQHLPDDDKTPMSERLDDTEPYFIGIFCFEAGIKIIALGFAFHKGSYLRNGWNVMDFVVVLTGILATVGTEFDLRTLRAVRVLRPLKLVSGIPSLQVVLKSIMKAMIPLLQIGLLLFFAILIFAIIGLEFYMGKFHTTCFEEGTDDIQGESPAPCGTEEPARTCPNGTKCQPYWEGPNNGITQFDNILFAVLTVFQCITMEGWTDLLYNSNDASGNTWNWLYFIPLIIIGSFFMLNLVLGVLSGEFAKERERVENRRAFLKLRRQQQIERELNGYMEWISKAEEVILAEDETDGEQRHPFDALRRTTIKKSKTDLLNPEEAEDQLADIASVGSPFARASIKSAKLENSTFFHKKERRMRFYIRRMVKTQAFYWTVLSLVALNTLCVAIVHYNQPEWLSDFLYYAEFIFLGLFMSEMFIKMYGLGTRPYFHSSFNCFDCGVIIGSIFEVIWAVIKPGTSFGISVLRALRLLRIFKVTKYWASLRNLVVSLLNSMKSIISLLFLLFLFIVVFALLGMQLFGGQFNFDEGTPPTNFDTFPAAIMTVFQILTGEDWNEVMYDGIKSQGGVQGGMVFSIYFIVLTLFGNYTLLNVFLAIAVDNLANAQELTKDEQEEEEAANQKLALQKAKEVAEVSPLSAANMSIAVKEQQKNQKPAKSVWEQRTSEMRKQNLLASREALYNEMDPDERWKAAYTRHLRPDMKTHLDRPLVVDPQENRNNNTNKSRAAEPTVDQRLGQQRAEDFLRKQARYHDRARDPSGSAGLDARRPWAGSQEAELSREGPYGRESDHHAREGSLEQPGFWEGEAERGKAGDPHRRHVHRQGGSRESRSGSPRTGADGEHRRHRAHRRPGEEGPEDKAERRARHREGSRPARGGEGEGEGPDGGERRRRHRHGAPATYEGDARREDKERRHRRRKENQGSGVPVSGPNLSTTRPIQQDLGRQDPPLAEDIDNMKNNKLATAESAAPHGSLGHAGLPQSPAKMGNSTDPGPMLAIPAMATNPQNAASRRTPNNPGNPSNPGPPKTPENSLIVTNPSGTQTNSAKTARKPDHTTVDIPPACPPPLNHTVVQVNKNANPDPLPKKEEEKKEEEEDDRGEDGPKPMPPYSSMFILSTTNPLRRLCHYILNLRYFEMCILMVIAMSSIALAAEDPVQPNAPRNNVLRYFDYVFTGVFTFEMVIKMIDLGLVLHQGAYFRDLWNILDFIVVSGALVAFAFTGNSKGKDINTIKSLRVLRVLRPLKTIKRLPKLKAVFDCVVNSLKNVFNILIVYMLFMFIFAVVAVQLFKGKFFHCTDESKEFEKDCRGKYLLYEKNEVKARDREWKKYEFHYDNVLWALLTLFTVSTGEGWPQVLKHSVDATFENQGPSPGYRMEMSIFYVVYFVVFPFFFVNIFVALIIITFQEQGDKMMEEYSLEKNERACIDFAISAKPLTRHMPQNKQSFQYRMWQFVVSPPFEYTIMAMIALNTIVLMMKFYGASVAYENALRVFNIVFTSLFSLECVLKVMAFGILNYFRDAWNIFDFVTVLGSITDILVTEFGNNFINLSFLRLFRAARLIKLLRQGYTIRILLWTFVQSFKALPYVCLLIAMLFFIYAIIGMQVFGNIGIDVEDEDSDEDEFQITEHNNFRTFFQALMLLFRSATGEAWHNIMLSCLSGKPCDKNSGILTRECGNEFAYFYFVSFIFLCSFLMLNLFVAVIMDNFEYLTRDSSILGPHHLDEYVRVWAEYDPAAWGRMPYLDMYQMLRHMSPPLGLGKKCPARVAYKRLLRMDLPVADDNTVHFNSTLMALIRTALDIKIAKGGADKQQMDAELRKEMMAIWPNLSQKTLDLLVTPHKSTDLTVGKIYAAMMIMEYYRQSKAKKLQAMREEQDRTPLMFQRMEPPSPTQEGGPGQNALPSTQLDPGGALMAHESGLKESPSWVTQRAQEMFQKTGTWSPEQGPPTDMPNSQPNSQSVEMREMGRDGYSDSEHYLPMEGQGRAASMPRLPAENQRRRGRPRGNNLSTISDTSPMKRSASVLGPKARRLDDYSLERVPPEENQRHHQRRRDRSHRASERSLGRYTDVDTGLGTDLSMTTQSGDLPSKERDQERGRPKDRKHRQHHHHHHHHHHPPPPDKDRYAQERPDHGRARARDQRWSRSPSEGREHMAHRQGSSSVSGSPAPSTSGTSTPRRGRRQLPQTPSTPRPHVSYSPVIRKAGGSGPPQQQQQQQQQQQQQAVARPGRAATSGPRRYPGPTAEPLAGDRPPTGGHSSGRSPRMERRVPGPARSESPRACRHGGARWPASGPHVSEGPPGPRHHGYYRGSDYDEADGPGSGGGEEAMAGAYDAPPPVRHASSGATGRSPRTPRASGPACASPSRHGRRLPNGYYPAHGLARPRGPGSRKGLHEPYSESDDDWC

N-type calcium channels = N-type calcium channels (Homo sapiens, UniProt Q00975); details: cited from earlier work
Sequence of N-type calcium channels (Q00975 whole entry, looked up): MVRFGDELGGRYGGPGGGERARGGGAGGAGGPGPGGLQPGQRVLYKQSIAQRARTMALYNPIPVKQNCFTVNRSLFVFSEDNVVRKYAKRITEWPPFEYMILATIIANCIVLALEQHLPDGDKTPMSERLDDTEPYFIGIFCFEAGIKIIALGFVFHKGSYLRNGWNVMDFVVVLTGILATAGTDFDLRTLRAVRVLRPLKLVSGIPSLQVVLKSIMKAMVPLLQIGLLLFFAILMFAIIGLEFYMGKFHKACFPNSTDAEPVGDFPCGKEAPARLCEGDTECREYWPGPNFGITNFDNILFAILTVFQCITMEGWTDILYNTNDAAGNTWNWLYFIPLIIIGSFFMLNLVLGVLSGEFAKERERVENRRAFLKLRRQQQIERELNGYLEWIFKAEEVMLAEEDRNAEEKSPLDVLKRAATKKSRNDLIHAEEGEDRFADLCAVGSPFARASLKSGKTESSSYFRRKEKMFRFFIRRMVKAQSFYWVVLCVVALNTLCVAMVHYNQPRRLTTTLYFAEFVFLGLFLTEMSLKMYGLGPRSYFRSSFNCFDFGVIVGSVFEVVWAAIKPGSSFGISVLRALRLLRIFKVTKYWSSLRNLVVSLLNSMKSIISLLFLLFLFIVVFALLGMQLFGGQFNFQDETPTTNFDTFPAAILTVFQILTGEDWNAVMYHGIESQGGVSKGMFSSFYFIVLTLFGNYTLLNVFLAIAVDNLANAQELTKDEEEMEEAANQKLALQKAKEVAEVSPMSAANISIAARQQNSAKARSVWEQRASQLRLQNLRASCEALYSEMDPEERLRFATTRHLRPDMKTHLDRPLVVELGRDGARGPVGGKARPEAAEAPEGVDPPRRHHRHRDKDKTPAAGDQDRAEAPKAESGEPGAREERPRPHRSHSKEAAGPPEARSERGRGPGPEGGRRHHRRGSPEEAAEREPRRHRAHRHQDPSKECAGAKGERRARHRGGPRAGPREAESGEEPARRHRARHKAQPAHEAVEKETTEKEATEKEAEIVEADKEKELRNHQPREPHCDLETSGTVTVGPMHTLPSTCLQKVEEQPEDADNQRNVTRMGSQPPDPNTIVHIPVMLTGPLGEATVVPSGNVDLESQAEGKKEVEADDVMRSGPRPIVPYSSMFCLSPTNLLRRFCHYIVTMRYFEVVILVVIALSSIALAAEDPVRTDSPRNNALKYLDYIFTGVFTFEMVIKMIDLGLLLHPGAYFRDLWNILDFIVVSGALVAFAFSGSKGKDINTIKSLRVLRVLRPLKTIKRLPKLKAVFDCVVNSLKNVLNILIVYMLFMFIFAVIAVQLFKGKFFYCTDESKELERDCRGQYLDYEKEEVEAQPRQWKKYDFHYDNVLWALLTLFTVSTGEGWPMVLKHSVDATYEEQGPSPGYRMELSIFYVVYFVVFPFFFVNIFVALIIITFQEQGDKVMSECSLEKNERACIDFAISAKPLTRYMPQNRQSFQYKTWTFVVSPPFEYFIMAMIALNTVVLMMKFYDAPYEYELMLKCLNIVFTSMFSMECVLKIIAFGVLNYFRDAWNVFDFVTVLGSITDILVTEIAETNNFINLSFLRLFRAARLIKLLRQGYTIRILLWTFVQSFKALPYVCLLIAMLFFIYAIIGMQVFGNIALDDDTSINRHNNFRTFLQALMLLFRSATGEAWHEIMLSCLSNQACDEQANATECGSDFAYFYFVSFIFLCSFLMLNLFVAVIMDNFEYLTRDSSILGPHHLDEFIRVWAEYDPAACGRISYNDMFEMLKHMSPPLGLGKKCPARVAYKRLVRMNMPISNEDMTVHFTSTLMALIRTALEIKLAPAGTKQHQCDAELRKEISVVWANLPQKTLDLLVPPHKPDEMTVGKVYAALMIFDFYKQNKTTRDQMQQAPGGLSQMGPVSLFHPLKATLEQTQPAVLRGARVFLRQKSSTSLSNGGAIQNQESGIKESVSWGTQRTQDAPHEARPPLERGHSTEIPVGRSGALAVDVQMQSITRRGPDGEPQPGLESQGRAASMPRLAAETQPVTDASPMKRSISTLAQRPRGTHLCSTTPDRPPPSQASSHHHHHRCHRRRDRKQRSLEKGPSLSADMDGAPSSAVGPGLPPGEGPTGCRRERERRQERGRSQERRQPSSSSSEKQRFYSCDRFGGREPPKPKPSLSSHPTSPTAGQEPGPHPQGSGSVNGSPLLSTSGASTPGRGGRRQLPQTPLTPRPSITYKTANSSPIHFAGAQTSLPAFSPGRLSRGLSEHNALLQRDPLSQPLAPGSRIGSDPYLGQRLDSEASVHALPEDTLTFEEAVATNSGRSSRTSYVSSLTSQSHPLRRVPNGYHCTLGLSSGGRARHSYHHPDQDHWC

Substance | relative binding affinity (order of displacement of [125I]GVIA binding) [1] | P/Q-type calcium channel inhibition or binding (description) ([2]; literature) | N-type calcium channel block (description) (N-type calcium channels) | P/Q-type calcium channel inhibition or binding (description) [2]
KKKCIAKDYGRCKWGGTPCCRGRGCICSIMGTNCECKPRLIMEGLGLA (disulfide 4-20, 12-25, 19-36, 27-34 (inferred)) [ω-Agatoxin, ω-Agatoxin IVA] | lowest relative binding affinity | has been shown to bind |  | 
ω-conotoxin GVIA | highest relative binding affinity |  | potent and selective blocker | 
ω-conotoxin MVIIC |  |  | weak inhibitor | potent inhibitor
